In US5519021A, “Benzoxazinones as inhibitors of HIV reverse transcriptase” (priority 1995, dated 1996):
Where two headings read alike, the source gives them in different places.

How the values were obtained:
[1] = biological target: T1, A17 RT (Human immunodeficiency virus type 1 group M subtype B, UniProt P04585, K690N/Y768C); assay: biochemical; set-up: species or system HIV-1
T1 construct: A17 RT was employed in the assay; made in house; host or cells: bacteria
Description: (§1) The assay measures the incorporation of tritiated deoxyguanosine monophosphate by recombinant HIV reverse transcriptase (HIV RTR) (or other RT) into acid-precipitable cDNA at the Km values of dGTP and poly r(C).cndot.oligo d(G)12-18.
(§2) The assays were carried out in 55 mM Tris (pH 8.2)-30 mM KCl-30 mM MgCl2 -1 mM dithiothreitol-20 μg of rC:dG 12-18 (Pharmacia) per ml-8 mM [^3 H]dGTP (New England Nuclear)-0.01% Triton X-100-50 mM ethylene glycol-bis(β-amino-ethyl ether)-N,N,N',N'-tetraacetic acid (EGTA)-1 mg of bovine serum albumin per ml. After 60 min of incubation at 37° C., acid-precipitable material was collected onto glass fiber filters by using a semiautomatic cell harvester. Bacterial cell extracts containing RT were diluted to within the linear range of the assay, and activity was determined in the presence and absence of inhibitor. Purified HIV-1 RT heterodimer produced in E. coli also served as a control.
For the double mutant assay (dm), A17 RT was employed in the assay. […] Results are measured as IC50 dm in nanomoles/liter.

[2] = biological target: T2, recombinant HIV reverse transcriptase (HIV RTR) (Human immunodeficiency virus type 1 group M subtype B, UniProt P04585); assay: Reverse transcriptase assay (wild type); format: biochemical, HIV-1
T2 construct: recombinant HIV reverse transcriptase (HIV RTR); made in house; host or cells: E. coli
Description: as §1, §2

[3] = test system: HIV-1 (wild-type); assay: Cell spread assay (MT-4 T-lymphoid cells); format: cell-based; details: Human immunodeficiency virus 1, MT4, 72 h, read-out: CIC*95
Description: Inhibition of the spread of HIV in cell culture was measured according to Nunberg, J. H. et al., J. Virol. 65, 4887 (1991 ). In this assay, MT-4 T-lymphoid cells were infected with HIV-1 (wild-type, unless otherwise indicated) by using a predetermined inoculum, and cultures were incubated for 24 h. At this time, ≤1% of the cells were positive by indirect immunofluorescence. Cells were then extensively washed and distributed into 96-well culture dishes. Serial twofold dilutions of inhibitor were added to the wells, and cultures were continued for 3 additional days. At 4 days postinfection, 100% of the cells in control cultures were infected. HIV-1 p24 accumulation was directly correlated with virus spread. The cell culture inhibitory concentration was defined as the inhibitor concentration in nanomoles/liter which reduced the spread of infection by at least 95%, or CIC95.

[4] = Table II, wild-type RT, read-out: IC*50 wt
[5] = Table I, concentration reducing spread of infection by at least 95%, MT-4 cells
[6] = Table I, wild-type RT, read-out: IC*50 wt

Structure (SMILES) | IC50 [1] | IC50 [2, 6] | other results
S=C1Nc2ccc(Cl)cc2C(C2CC2)(C2CC2)O1 [Compound 38] | > 300000 nM | – | IC50 [2, 4]: 136 nM
O=C1Nc2ccc(Cl)cc2[C@](C#Cc2ccccc2)(C(F)(F)F)O1 [3(+), (+) 6-Chloro-4-phenylethynyl-4-trifluoromethyl 1,4-dihydro-2H-3,1-benzoxazin-2-one] | 37000 nM | – | IC95 [3, 5]: > 200 nM; IC50 [2]: 2900 nM
COc1ccccc1C#CC1(C(F)(F)F)OC(=O)Nc2ccc(Cl)cc21 (stereo not drawn) [Compound 11] | 270 nM | 16 nM | IC95 [3, 5]: 6 nM
Cc1ccc(C#CC2(C(F)(F)F)OC(=O)Nc3ccc(Cl)cc32)cc1 (stereo not drawn) [Compound 8] | 8470 nM | 163 nM | –
CCCC1(C2CCCC2)OC(=S)Nc2ccc(Cl)cc21 (stereo not drawn) [Compound 41] | > 300000 nM | – | IC50 [2, 4]: 1400 nM
O=C1Nc2ccc(Cl)cc2C(C#Cc2ccccc2)(C(F)(F)Cl)O1 (racemic) [Compound 5, (+/-) 4-(1-Chloro-1,1-difluoromethyl)-4-(2-phenylethynyl)-6-chloro-1,4-dihydro-2H-3,1-benzoxazin-2-one] | 350 nM | 12 nM | –
CCC1(CC)OC(=O)Nc2ccc(Cl)cc21 [Compound 34] | > 300000 nM | 16500 nM | –
CCCC1(c2ccccc2)OC(=S)Nc2ccc(Cl)cc21 (stereo not drawn) [Compound 43] | – | – | IC50 [2, 4]: 610 nM
CN(C)CC#CC1(C2CC2)OC(=O)Nc2ccc(Cl)cc21 (stereo not drawn) [Compound 31] | 4250 nM | 410 nM | –
C#CC1(CCC)OC(=O)Nc2ccc(Cl)cc21 (stereo not drawn) [Compound 29] | > 100000 nM | 1900 nM | –
COC(=O)/C=C(/OC)C1(C(F)(F)F)OC(=O)Nc2ccc(Cl)cc21 (stereo not drawn) [Compound 13] | 100000 nM | 390 nM | –
CCCC1(C2CC2)OC(=O)Nc2ccc(Cl)cc21 (stereo not drawn) [Compound 28] | 114000 nM | 307 nM | IC95 [3, 5]: 1500 nM
O=C1Nc2ccc(Cl)cc2C(Sc2ccccc2)(C(F)(F)F)O1 (stereo not drawn) [Compound 21] | 125000 nM | 860 nM | –
COc1ccc(C#CC2(C(F)(F)F)OC(=O)Nc3ccc(Cl)cc32)cc1 (stereo not drawn) | 4100 nM | 58 nM | –
CCC1(c2ccccc2)OC(=O)Nc2ccc(Cl)cc21 (stereo not drawn) [Compound 33] | – | 300 nM | –
O=C1Nc2ccc(Cl)cc2[C@@](C#Cc2ccccc2)(C(F)(F)F)O1 [4(-), (-) 6-Chloro-4-phenylethynyl-4-trifluoromethyl-1,4-dihydro-2H-3,1-benzoxazin-2-one] | 69 nM | – | IC95 [3]: 12 nM; IC50 [2]: 8.6 nM
S=C1Nc2ccc(Cl)cc2C(c2ccccc2)(C2CC2)O1 (stereo not drawn) [Compound 46] | > 300000 nM | – | IC50 [2, 4]: 41 nM
CCC1(c2ccccc2)OC(=S)Nc2ccc(Cl)cc21 (stereo not drawn) [Compound 44] | > 300000 nM | – | IC95 ([3]; Table II, concentration reducing spread of infection by at least 95%, MT-4 cells): 100 nM; IC50 [2, 4]: 15 nM
CCC1(CC)OC(=S)Nc2ccc(Cl)cc21 [Compound 45] | > 300000 nM | – | IC50 [2, 4]: 560 nM
C=CCCC1(C(F)(F)F)OC(=O)Nc2ccc(Cl)cc21 (racemic) [Compound 15, (+/-) 4-(1,1,1,-trifluoromethyl)-4-(1-buten-4-yl)-6-chloro-1,4-dihydro-2H-3,1-benzoxazin-2-one] | > 100000 nM | 29 nM | –
CCCCC1(C(F)(F)F)OC(=O)Nc2ccc(Cl)cc21 (stereo not drawn) [Compound 19] | 25000 nM | 24 nM | –
CCCC1(CC)OC(=O)Nc2ccc(Cl)cc21 (stereo not drawn) [Compound 36] | > 300000 nM | 52 nM | –

Structure (SMILES) | IC50 [1] | IC50 [2, 6] | other results
C=CC1(C(F)(F)F)OC(=O)Nc2ccc(Cl)cc21 (stereo not drawn) [Compound 23] | > 30000 nM | 1300 nM | –
C#CC1(c2ccccc2)OC(=O)Nc2ccc(Cl)cc21 (stereo not drawn) [Compound 35] | > 300000 nM | 650 nM | –
CCCCC1(c2ccccc2)OC(=S)Nc2ccc(Cl)cc21 (stereo not drawn) [Compound 42] | – | – | IC50 [2, 4]: 1450 nM
O=C1Nc2ccc(Cl)cc2C(c2ccccc2)(C(F)(F)F)O1 (stereo not drawn) [Compound 20] | 100000 nM | 145 nM | –
COCC#CC1(C(F)(F)F)OC(=O)Nc2ccc(Cl)cc21 (stereo not drawn) [Compound 18] | 2650 nM | 15 nM | IC95 [3, 5]: 50 nM
O=C1Nc2ccc(Cl)cc2C(C#Cc2ccccc2[N+](=O)[O-])(C(F)(F)F)O1 (stereo not drawn) [Compound 6] | 19000 nM | 1700 nM | –
C=CCC1(C(F)(F)F)OC(=O)Nc2ccc(Cl)cc21 (stereo not drawn) [Compound 25] | > 100000 nM | 220 nM | –
CCC1(C(F)(F)F)OC(=O)Nc2ccc(Cl)cc21 (stereo not drawn) [Compound 17] | > 100000 nM | 2300 nM | –
COCC#CC1(C2CC2)OC(=O)Nc2ccc(Cl)cc21 (stereo not drawn) [Compound 30] | 3000 nM | 410 nM | –
C#CC1(C(F)(F)F)OC(=O)Nc2ccc(Cl)cc21 (racemic) [Compound 26, (+/-) 6-Chloro-4-ethynyl-4-(1,1,1-trifluoromethyl)-1,4-dihydro-2H-3,1-benzoxazin-2-one] | > 100000 nM | 0.24 nM | –
N#Cc1ccccc1C#CC1(C(F)(F)F)OC(=O)Nc2ccc(Cl)cc21 (racemic) [Compound 2, (+/-) 6-Chloro-4-(2-cyanophenyl)ethynyl-4-(1,1,1-trifluoromethyl)-1,4-dihydro-2H-3,1-benzoxazin-2-one] | 480 nM | 25 nM | IC95 [3, 5]: 6 nM
O=C1Nc2ccc(Cl)cc2C(C#Cc2ccccc2)(C(F)(F)F)O1 (racemic) [12(+/-), (±) 6-Chloro-4-phenylethynyl-4-trifluoromethyl-1,4-dihydro-2H-3,1-benzoxazin-2-one] | 280 nM | 12 nM | IC95 [3, 5]: 25 nM
COc1cccc(C#CC2(C(F)(F)F)OC(=O)Nc3ccc(Cl)cc32)c1 (stereo not drawn) [Compound 10] | 390 nM | 18 nM | –
O=C1Nc2ccc(Cl)cc2C(C#CCN2CCCC2)(C(F)(F)F)O1 (racemic) [Compound 7, (+/-) 6-Chloro-4-(1,1,1-trifluoromethyl)-4-[(3-(1-pyrrolidinyl))-1-propynyl] -1,4-dihydro-2H-3,1-benzoxazin-2-one] | 3460 nM | 91 nM | –
O=C1Nc2ccc(Cl)cc2C(CCc2ccccc2)(C(F)(F)F)O1 (stereo not drawn) [Compound 22] | 3650 nM | 55 nM | –
CCCC1(C(C)(C)C)OC(=O)Nc2ccc(Cl)cc21 (stereo not drawn) [Compound 37] | > 100000 nM | 5300 nM | –
O=C1Nc2ccc(Cl)cc2C(C#CCO)(C(F)(F)F)O1 (stereo not drawn) [Compound 27] | > 100000 nM | 550 nM | –
CCC1(C2CC2)OC(=S)Nc2ccc(Cl)cc21 (stereo not drawn) [Compound 39] | > 300000 nM | – | IC50 [2, 4]: 510 nM
CCCC1(c2ccccc2)OC(=O)Nc2ccc(Cl)cc21 (stereo not drawn) [Compound 32] | – | 5400 nM | –
CCCC1(C2CC2)OC(=S)Nc2ccc(Cl)cc21 (stereo not drawn) [Compound 40] | 29000 nM | – | IC50 [2, 4]: 48 nM
O=C1Nc2ccc(Cl)cc2C(CCCCl)(C(F)(F)F)O1 (stereo not drawn) [Compound 14] | 65000 nM | 130 nM | –
CN(C)CC#CC1(C(F)(F)F)OC(=O)Nc2ccc(Cl)cc21 (stereo not drawn) [Compound 24] | 1950 nM | 43 nM | IC95 [3, 5]: 100 nM
